Paper PMC12281142, “A potent phenylalkylamine disrupts mycobacterial membrane bioenergetics and augments bactericidal activity of bedaquiline” (iScience, 2025)
Converted amounts (≈) assume the structure as drawn. Read-outs that look alike come from different tables or passages of the source.

Test system: M. bovis BCG
Assay: microbe, parasite or virus in culture
Format: cell-based, Mycobacterium bovis BCG

Molecule	MIC50 [µM]	MIC90 [µM]	MIC90 (Table S1) [µM]	other results
COc1ccc(CCN(C)CCCC(C#N)(c2ccc(Cl)cc2)C2CCCCC2)cc1OC (stereo not shown) [PhA14]	19 (≈ 8.91 µg/mL)	35 (≈ 16.4 µg/mL)	35 (≈ 16.4 µg/mL)	
COc1ccc(CCN(C)CCCC(C#N)(CC2CCCCC2)c2ccc(Cl)cc2)cc1OC (stereo not shown) [PhA15]	21 (≈ 10.1 µg/mL)	37 (≈ 17.9 µg/mL)	37 (≈ 17.9 µg/mL)	
COc1ccc(C(C#N)(CC=C(C)CCC=C(C)C)CCCN2CCN(C(c3ccccc3)c3ccccc3)CC2)cc1OC (stereo not shown) [PhA16]	29 (≈ 17.6 µg/mL)	46 (≈ 27.9 µg/mL)	46 (≈ 27.9 µg/mL)	
COc1ccc(C(C#N)(CCCn2c(C)nc3ccccc32)C(C)C)cc1OC (stereo not shown) [PhA17]			> 250	
COc1ccc(C(C#N)(CCCn2c(N)nc3ccccc32)C(C)C)cc1OC (stereo not shown) [PhA18]			155 (≈ 60.8 µg/mL)	
COc1ccc(C(C#N)(CCCN2CCN(c3ccccc3Cl)CC2)C(C)C)cc1OC (stereo not shown) [PhA19]			73 (≈ 33.3 µg/mL)	
COc1ccc(C(C#N)(CCCN2CCN(c3ccccc3OC)CC2)C(C)C)cc1OC (stereo not shown) [PhA20]			163 (≈ 73.6 µg/mL)	
COc1ccc(C(C#N)(CCCN2CCN(c3cccc(O)c3)CC2)C(C)C)cc1OC (stereo not shown) [PhA21]			> 250	
COc1ccc(CCN(C)CCCC(C#N)(c2cc(OC)c(OC)c(OC)c2)C(C)C)cc1OC (stereo not shown) [PhA52, gallopamil, reference compound]				MIC90 (Table S1) (M. bovis BCG, broth dilution): > 250 µM
COc1cccc(CCN(C)CCCC(C#N)(c2ccc(OC)c(OC)c2)C(C)C)c1 (stereo not shown) [PhA57, devapamil, reference compound]				MIC90 (Mycobacterium tuberculosis variant bovis BCG, BCG, read-out: MIC90 (Table S1), M. bovis BCG, broth dilution): 180 µM (≈ 76.4 µg/mL)
CC(C)C(C#N)(CCCN(C)CCc1ccc(Cl)c(Cl)c1)c1ccc(Cl)c(Cl)c1 (stereo not shown) [PhA66]	56 (≈ 26.4 µg/mL)			
carbonyl cyanide m-chlorophenyl hydrazine [CCCP, reference compound]		50		MIC90 BCG: 10 mg/L
